Experimental data reported in patent publication US9029406B2 (Seattle Genetics, Inc, priority 2011, dated 2015).
Where a SMILES comes first, the peptide text is derived from it. [ ]: non-standard residue; d: D form. The star is where a group is joined. Dolaproine = CO[C@@H]([C@@H]1CCCN1)[C@@H](C)C(=O)O; Dil = CC[C@H](C)[C@H](NC)[C@@H](CC(=O)O)OC; X1 = C[C@@H](N*)[C@@H](O)c1ccccc1; NMeV = CN[C@H](C(=O)O)C(C)C

What was measured:
[1] = test system: Caco-2 cells; test: Cell permeability, flux assay using Caco-2 cells; assay type: in vitro ADME; conditions: Caco-2 flux assay, basal to apical, 2 h incubation
Protocol: (§1) B-4. Determination of Cell Permeability:
(§2) The cell permeability of a substance can be analyzed by in vitro testing in a flux assay using Caco-2 cells [M. D. Troutman and D. R. Thakker, Pharm. Res. 20 (8), 1210-1224 (2003)]. To do so, the cells were cultured for 15-16 days on 24-hole filter plates. To determine the permeation, the respective test substance was applied to the cells either apically (A) or basally (B) in a HEPES buffer and incubated for 2 h. After 0 h and after 2 h, samples were taken from the cis- and trans-compartments. The samples were separated by HPLC (Agilent 1200, Böblingen, Germany) using reverse phase columns. The HPLC system was coupled via a turbo ion spray interface to an API 4000 triple quadrupole mass spectrometer (Applied Biosystems Applera, Darmstadt, Germany). The permeability was evaluated on the basis of a Papp value, which was calculated using the equation published by Schwab et al. [D. Schwab et al., J. Med. Chem. 46, 1717-1725 (2003)]. A substance was classified as being actively transported if the ratio of Papp (B−A) to Papp (A−B) was >2 or <0.5.
(§3) The permeability of B to A [Papp (B−A)] is of crucial importance for toxophores that are released intracellularly. The lower this permeability, the longer is the dwell time of the substance in the cell after intracellular release and thus also the time available for an interaction with the biochemical target (here: tubulin).

[2] = test system: human colon carcinoma cell line HT29 wt; test: Antiproliferative effect on the HT29 wt cell line (MTT assay); assay type: cell-based; conditions: incubation 48 h to 96 h
Protocol: B-1. Determination of the Antiproliferative Effect on the HT29 Wt Cell Line:
A defined cell count of the human colon carcinoma cell line HT29 wt (wild type) was sown in a 96-well microtiter plate in whole medium (10% FCS-RPMI) (2500 cells/well) and incubated overnight at 37° C./5% CO2. After 18 hours, the inoculation medium was replaced by fresh medium with 10% FCS. The treatment started with addition of the respective test substance. Of the substances to be investigated, dose-effect curves were determined in a concentration range of 10^−5 M to 10^−14 M (1:10 dilution series). Incubation times of 48 h to 96 h were selected. Proliferation was detected with the help of the MTT assay (ATCC, Manassas, Va., USA, catalog no. 30-1010K). After the end of the selected incubation time, the MTT reagent was incubated with the cells for 4 h before lysis of the cells was performed overnight by adding the detergent. The dye that was formed was detected at 570 nm. The proliferation with otherwise identically treated cells but not with the test substance was defined as the 100% value. The data obtained from this test represents triple determinations, and at least two independent experiments were performed.

[3] = Cell permeability, flux assay using Caco-2 cells; assay type: in vitro ADME; conditions: human; Caco-2 flux assay, basal to apical, 2 h incubation
Protocol: as §1, §2, §3

[4] = Homo sapiens, HT-29, HT29 wt cells

Structure (SMILES)	Papp (B-A) [1] [×10⁻⁶ cm/s]	IC50 ([2]; HT29 wt cells) [nM]	Papp B→A at 2 h [3] [×10⁻⁶ cm/s]	IC50 [2, 4] [nM]
CC[C@H](C)[C@@H]([C@@H](CC(=O)N1CCC[C@H]1[C@H](OC)[C@@H](C)C(=O)N[C@@H](Cc1ccccc1)C(=O)O)OC)N(C)C(=O)[C@@H](NC(=O)[C@@H](NC)C(C)C)C(C)C [MMAF, monomethylauristatin F, reference compound] (H-[NMeV]V[Dil][Dolaproine]F-OH)	7.3	10		
CC[C@H](C)[C@@H]([C@@H](CC(=O)N1CCC[C@H]1[C@H](OC)[C@@H](C)C(=O)N[C@H](/C=C/c1ccccc1)Cc1ccccc1)OC)N(C)C(=O)[C@@H](NC(=O)[C@H](C(C)C)N(C)CCCC(=O)O)C(C)C [Example 3, N-(3-Carboxypropyl)-N-methyl-L-valyl-N-[(3R,4S,5S)-1-{(2S)-2-[(1R,2R)-3-{[(2S,3E)-1,4-diphenylbut-3-en-2-yl]amino}-1-methoxy-2-methyl-3-oxopropyl]pyrrolidin-1-yl}-3-methoxy-5-methyl-1-oxoheptan-4-yl]-N-methyl-L-valinamide]			17.9	0.3
CC[C@H](C)[C@@H]([C@@H](CC(=O)N1CCC[C@H]1[C@H](OC)[C@@H](C)C(=O)N[C@H](Cc1ccccc1)c1nnc(-c2ccccc2)o1)OC)N(C)C(=O)[C@@H](NC(=O)[C@H](C(C)C)N(C)CCCC(=O)O)C(C)C [Example 6, N-(3-Carboxypropyl)-N-methyl-L-valyl-N-[(3R,4S,5S)-3-methoxy-1-{(2S)-2-[(1R,2R)-1-methoxy-2-methyl-3-oxo-3-{[(1R)-2-phenyl-1-(5-phenyl-1,3,4-oxadiazol-2-yl)ethyl]amino}propyl]pyrrolidin-1-yl}-5-methyl-1-oxoheptan-4-yl]-N-methyl-L-valinamide]			4.5	0.1
CC[C@H](C)[C@@H]([C@@H](CC(=O)N1CCC[C@H]1[C@H](OC)[C@@H](C)C(=O)N[C@H](C)[C@@H](O)c1ccccc1)OC)N(C)C(=O)[C@@H](NC(=O)[C@H](C(C)C)N(C)CCCC(=O)O)C(C)C [Example 9, N-(3-Carboxypropyl)-N-methyl-L-valyl-N-[(3R,4S,5S)-1-{(2S)-2-[(1R,2R)-3-{[(1S,2R)-1-hydroxy-1-phenylpropan-2-yl]amino}-1-methoxy-2-methyl-3-oxopropyl]pyrrolidin-1-yl}-3-methoxy-5-methyl-1-oxoheptan-4-yl]-N-methyl-L-valinamide]			0.45	6
CC[C@H](C)[C@@H]([C@@H](CC(=O)N1CCC[C@H]1[C@H](OC)[C@@H](C)C(=O)NCCc1c[nH]c2ccccc12)OC)N(C)C(=O)[C@@H](NC(=O)[C@H](C(C)C)N(C)CCCC(=O)O)C(C)C [Example 7, N-(3-Carboxypropyl)-N-methyl-L-valyl-N-[(3R,4S,5S)-1-{(2S)-2-[(1R,2R)-3-{[2-(1H-indol-3-yl)ethyl]amino}-1-methoxy-2-methyl-3-oxopropyl]pyrrolidin-1-yl}-3-methoxy-5-methyl-1-oxoheptan-4-yl]-N-methyl-L-valinamide]			1.1	
CC[C@H](C)[C@@H]([C@@H](CC(=O)N1CCC[C@H]1[C@H](OC)[C@@H](C)C(=O)N[C@H](/C=C/c1ccc(C(=O)O)cc1)Cc1ccccc1)OC)N(C)C(=O)[C@@H](NC(=O)[C@H](C(C)C)N(C)CCCC(=O)O)C(C)C [Example 11]			0.2	4.5
CC[C@H](C)[C@@H]([C@@H](CC(=O)N1CCC[C@H]1[C@H](OC)[C@@H](C)C(=O)N[C@H](/C=C\c1ccccc1)Cc1ccccc1)OC)N(C)C(=O)[C@@H](NC(=O)[C@H](C(C)C)N(C)CCCC(=O)O)C(C)C [Example 2, N-(3-Carboxypropyl)-N-methyl-L-valyl-N-[(3R,4S,5S)-1-{(2S)-2-[(1R,2R)-3-{[(2S,3Z)-1,4-diphenylbut-3-en-2-yl]amino}-1-methoxy-2-methyl-3-oxopropyl]pyrrolidin-1-yl}-3-methoxy-5-methyl-1-oxoheptan-4-yl]-N-methyl-L-valinamide]			15.7	3.3
CC[C@H](C)[C@@H]([C@@H](CC(=O)N1CCC[C@H]1[C@H](OC)[C@@H](C)C(=O)N[C@H](C)[C@@H](O)c1ccccc1)OC)N(C)C(=O)[C@@H](NC(=O)[C@@H](NC)C(C)C)C(C)C [MMAE, monomethylauristatin E, reference compound] (H-[NMeV]V[Dil][Dolaproine]-X1)	8.9			
CC[C@H](C)[C@@H]([C@@H](CC(=O)N1CCC[C@H]1[C@H](OC)[C@@H](C)C(=O)NCCc1ccccc1)OC)N(C)C(=O)[C@@H](NC(=O)[C@H](C(C)C)N(C)CCCC(=O)O)C(C)C [Example 8, N-(3-Carboxypropyl)-N-methyl-L-valyl-N-[(3R,4S,5S)-3-methoxy-1-{(2S)-2-[(1R,2R)-1-methoxy-2-methyl-3-oxo-3-[(2-phenylethyl)amino]propyl}pyrrolidin-1-yl}-5-methyl-1-oxoheptan-4-yl]-N-methyl-L-valinamide]			1	0.5
CC[C@H](C)[C@@H]([C@@H](CC(=O)N1CCC[C@H]1[C@H](OC)[C@@H](C)C(=O)N[C@@H](Cc1ccccc1)c1nnc(-c2ccccc2)o1)OC)N(C)C(=O)[C@@H](NC(=O)[C@H](C(C)C)N(C)CCCC(=O)O)C(C)C [Example 5, N-(3-Carboxypropyl)-N-methyl-L-valyl-N-[(3R,4S,5S)-3-methoxy-1-{(2S)-2-[(1R,2R)-1-methoxy-2-methyl-3-oxo-3-{[(1S)-2-phenyl-1-(5-phenyl-1,3,4-oxadiazol-2-yl)ethyl]amino}propyl]pyrrolidin-1-yl}-5-methyl-1-oxoheptan-4-yl]-N-methyl-L-valinamide]			2.9	0.1
CC[C@H](C)[C@@H]([C@@H](CC(=O)N1CCC[C@H]1[C@H](OC)[C@@H](C)C(=O)N[C@H](/C=C\Cc1ccccc1)Cc1ccccc1)OC)N(C)C(=O)[C@@H](NC(=O)[C@H](C(C)C)N(C)CCCC(=O)O)C(C)C [Example 1, N-(3-Carboxypropyl)-N-methyl-L-valyl-N-[(3R,4S,5S)-1-{(2S)-2-[(1R,2R)-3-{[(2S,3Z)-1,5-diphenylpent-3-en-2-yl]amino}-1-methoxy-2-methyl-3-oxopropyl]pyrrolidin-1-yl}-3-methoxy-5-methyl-1-oxoheptan-4-yl]-N-methyl-L-valinamide]				15
CC[C@H](C)[C@@H]([C@@H](CC(=O)N1CCC[C@H]1[C@H](OC)[C@@H](C)C(=O)N[C@@H](Cc1ccccc1)CS(=O)(=O)Cc1ccccc1)OC)N(C)C(=O)[C@@H](NC(=O)[C@H](C(C)C)N(C)CCCC(=O)O)C(C)C [Example 4]			1.9	1.1
